# Measured values: patent US20250270222A1, “AP2 ASSOCIATED KINASE 1 INHIBITORS AND USES THEREOF” (Satellos Bioscience Inc., priority 2023, published 2025)
# Target: AAK1 (amino acids T27-A365) (Homo sapiens (Human), UniProt Q2M2I8)
# Assay: AAK1 pSENs assay
# Format: biochemical
# Details: ratio of AAK1 pSENs activity to GAK pSENs activity
# Procedure: The recombinant proteins were independently expressed in Esherichia coli BL21(DE3) cells cultured in Luria-Bertani (LB) medium until OD600 reached 0.6-0.8, then cooled to 15° C., and supplemented with 0.5 mM isopropyl 1-thio-D-galactopyranoside (IPTG) induce protein expression 16 h. Cells were harvested and resuspended in lysis buffer (50 mM HEPES pH 7.5, 500 mM NaCl, 5 mM imidazole, 5% glycerol, 0.5 mM Tris (2-carboxyethyl) phosphine (TCEP), cOmplete Protease Inhibitor Tablet (Roche)) and lysed by microfluidics high pressure homogenizer (UH-06, Union-Biotech). Proteins were purified using Ni-Affinity chromatography (His FF column, Bestchrom) and eluted stepwise in binding buffer with 20-300 mM imidazole. Removal of the hexahistidine tag was performed at 4° C. overnight using recombinant TEV protease and reacted with BirA to obtain the corresponding biotinylated-AAK1. BIKE or GAK proteins. Further separated in the reverse Strep column (Strep-Tactin® XT, IBA). The Biotin elution sample was collected containing untagged biotinylated protein was then purified by Ion-exchange chromatography (Mono Q 10/100 GL, Cytiva) and Size-exclusion chromatography (HiLoad 16/600 Superdex 200 pg, Cytiva). The pure protein was stored in a storage buffer 50 mM HEPES (pH 7.5), 300 mM NaCl, 5% glycerol at −80° C. Protein were characterized by SDS-PAGE. LC-MS and aSEC.
# This example describes one illustrative method for determining the IC50 of the compounds of the present invention against AAK1 (amino acids T27-A365). AAK1 protein was dissolved at 20 nM in 1× enzyme solution (50 mM HEPES pH7.5, 10 mM MgCl2, 1 mM DTT, 1% glycerol, 0.5 mM EGTA, 0.01% Briji35, 0.02% BSA) and 12.5 ul was incubated with 250 nl DMSO or 250 nl compound in DMSO at 25° C. for 15 min. The reaction was started by addition of 12.5 ul of 30 uM AQT0759 (Assayquant, CSKS-AQT0759B) and 70 uM ATP which were diluted in 1× substrate dilution buffer (50 mM HEPES pH7.5, 10 mM MgCl2, 1 mM DTT, 1% glycerol, 0.5 mM EGTA, 0.01% Briji35).
# Sequence of AAK1 (amino acids T27-A365) (Q2M2I8 27-365): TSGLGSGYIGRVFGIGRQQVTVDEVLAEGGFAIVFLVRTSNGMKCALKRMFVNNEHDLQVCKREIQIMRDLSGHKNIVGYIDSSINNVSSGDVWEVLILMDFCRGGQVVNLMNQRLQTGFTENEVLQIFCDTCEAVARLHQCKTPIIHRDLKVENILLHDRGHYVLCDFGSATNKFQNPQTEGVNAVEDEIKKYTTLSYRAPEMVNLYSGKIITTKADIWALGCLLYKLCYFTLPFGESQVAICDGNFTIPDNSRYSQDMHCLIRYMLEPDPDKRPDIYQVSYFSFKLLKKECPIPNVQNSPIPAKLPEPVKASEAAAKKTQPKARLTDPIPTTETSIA
row,Structure (SMILES),AAK1:GAK pSENs Selectivity
1,"CC1(OC(=O)N2CCN(c3ccn4ncc(-c5ccc(C(N)=O)cc5)c4n3)CC2)COC1 [Compound I-3, (3-methyloxetan-3-yl)-4-[3-(4-carbamoylphenyl)pyrazolo[1,5-a]pyrimidin-5-yl]piperazine-1-carboxylate]",B (B: 0.016-0.075)
2,"CC1(OC(=O)N2CCN(c3ccn4ncc(-c5cccc(C(N)=O)c5)c4n3)CC2)COC1 [Compound I-4, (3-methyloxetan-3-yl)-4-[3-(3-carbamoylphenyl)pyrazolo[1,5-a]pyrimidin-5-yl]piperazine-1-carboxylate]",C (C: 0.076-0.15)
3,"COc1ncccc1-c1cnn2ccc(N3CCN(C(=O)OC4CCNC4)CC3)nc12 (centres unmarked) [Compound I-5, Pyrrolidin-3-yl4-[3-(2-methoxy-3-pyridyl)pyrazolo[1,5-a]pyrimidin-5-yl]piperazine-1-carboxylate]",B (B: 0.016-0.075)
4,"COc1ncccc1-c1cnn2ccc(N3CCN(C(=O)OC4(C)CCNC4)CC3)nc12 (centres unmarked) [Compound I-8, (3-Methylpyrrolidin-3-yl)-4-[3-(2-methoxy-3-pyridyl)pyrazolo[1,5-a]pyrimidin-5-yl]piperazine-1-carboxylate]",B (B: 0.016-0.075)
5,"C#CC1(OC(=O)N2CCN(c3ccn4ncc(-c5cccnc5OC)c4n3)CC2)CCNC1 (centres unmarked) [Compound I-9, (3-Ethynylpyrrolidin-3-yl) 4-[3-(2-methoxy-3-pyridyl)pyrazolo[1,5-a]pyrimidin-5-yl]piperazine-1-carboxylate]",B (B: 0.016-0.075)
6,"CN(CCNc1ccn2ncc(-c3cccnc3OC3CC3)c2n1)C(=O)OC(C)(C)C [Compound I-12, tert-butyl N-[2-[[3-[2-(Cyclopropoxy)-3-pyridyl]pyrazolo[1,5-a]pyrimidin-5-yl]amino]ethyl]-N-methyl-carbamate]",A (A: ≤0.015)
7,"CC(C)(C)OC(=O)N1CCC(N2C[C@H](OC(=O)N3CCN(c4ccn5ncc(-c6cccnc6OC6CC6)c5n4)CC3)CC2=O)CC1 [Compound I-31, (R)-1-(1-(tert-Butoxycarbonyl)piperidin-4-yl)-5-oxopyrrolidin-3-yl 4-(3-(2-cyclopropoxypyridin-3-yl)pyrazolo[1,5-a]pyrimidin-5-yl)piperazine-1-carboxylate]",D (D: 0.16-1.00)
8,"CN(CCN1C[C@@H](OC(=O)N2CCN(c3ccn4ncc(-c5cccnc5OC5CC5)c4n3)CC2)CC1=O)C(=O)OC(C)(C)C [Compound I-35, (S)-1-(2-((tert-butoxycarbonyl)(methyl)amino)ethyl)-5-oxopyrrolidin-3-yl-4-(3-(2-cyclopropoxypyridin-3-yl)pyrazolo[1,5-a]pyrimidin-5-yl)piperazine-1-carboxylate]",B (B: 0.016-0.075)
9,"O=C1C[C@H](OC(=O)N2CCN(c3ccn4ncc(-c5cccnc5NC5CC5)c4n3)CC2)CN1 [Compound I-45, [(3S)-5-Oxopyrrolidin-3-yl]4-[3-[2-(cyclopropylamino)-3-pyridyl]pyrazolo[1,5-a]pyrimidin-5-yl]piperazine-1-carboxylate]",E (E: >1.00)
10,"COc1ncccc1-c1cnn2ccc(NCCN(C)C(=O)O[C@H]3CO[C@H]4OCC[C@H]43)nc12 [Compound I-70, (3R,3aS,6aR)-hexahydrofuro[2,3-b]furan-3-yl (2-((3-(2-methoxypyridin-3-yl)pyrazolo[1,5-a]pyrimidin-5-yl)amino)ethyl)(methyl)carbamate]",B (B: 0.016-0.075)
11,"CN(CCNc1ccn2ncc(-c3cccnc3OC3CC3)c2n1)C(=O)O[C@H]1CO[C@H]2OCC[C@H]21 [Compound I-71, (3R,3aS,6aR)-hexahydrofuro[2,3-b]furan-3-yl (2-((3-(2-cyclopropoxypyridin-3-yl)pyrazolo[1,5-a]pyrimidin-5-yl)amino)ethyl)(methyl)carbamate]",B (B: 0.016-0.075)
12,CN1C[C@@H](OC(=O)N2CCN(c3ccn4ncc(-c5cc(OC(F)(F)F)cnc5OC5CC5)c4n3)CC2)CC1=O [Compound I-88],B (B: 0.016-0.075)
13,CN1C[C@H](OC(=O)N2CCN(c3ccn4ncc(-c5cccnc5OC5CC5)c4n3)CC2)CC1=O [Compound I-94],A (A: ≤0.015)
14,"CN1C[C@@H](OC(=O)N2CCN(c3ccn4ncc(Cl)c4n3)CC2)CC1=O [Compound I-96, [(3S)-1-methyl-5-oxo-pyrrolidin-3-yl]-4-(3-chloropyrazolo[1,5-a]pyrimidin-5-yl)piperazine-1-carboxylate]",E (E: >1.00)
15,"CN1C[C@@H](OC(=O)N2CCN(c3ccn4nccc4n3)CC2)CC1=O [Compound I-97, [(3S)-1-methyl-5-oxo-pyrrolidin-3-yl]-4-pyrazolo[1,5-a]pyrimidin-5-ylpiperazine-1-carboxylate]",E (E: >1.00)

# Results, then the compound that gave them:
row,AAK1:GAK pSENs Selectivity,Structure (SMILES)
1,B (B: 0.016-0.075),"CC1(OC(=O)N2CCN(c3ccn4ncc(-c5cccnc5OC5CC5)c4n3)CC2)CCNC1 (centres unmarked) [Compound I-13-5, (3-Methylpyrrolidin-3-yl) 4-[3-[2-(cyclopropoxy)-3-pyridyl]pyrazolo [1,5-a]pyrimidin-5-yl]piperazine-1-carboxylate]"
2,A (A: ≤0.015),"C[C@@]1(OC(=O)N2CCN(c3ccn4ncc(-c5cccnc5OC5CC5)c4n3)CC2)CCNC1 [Compound I-14, [(3R)-3-Methylpyrrolidin-3-yl]-4-[3-[2-(cyclopropoxy)-3-pyridyl]pyrazolo[1,5-a]pyrimidin-5-yl]piperazine-1-carboxylate]"
3,B (B: 0.016-0.075),"C#C[C@]1(OC(=O)N2CCN(c3ccn4ncc(-c5cccnc5OC5CC5)c4n3)CC2)CCNC1 [Compound I-15, [(3R)-3-Ethynylpyrrolidin-3-yl]-4-[3-[2-(cyclopropoxy)-3-pyridyl]pyrazolo[1,5-a]pyrimidin-5-yl]piperazine-1-carboxylate]"
4,B (B: 0.016-0.075),"C#C[C@@]1(OC(=O)N2CCN(c3ccn4ncc(-c5cccnc5OC5CC5)c4n3)CC2)CCNC1 [Compound I-16, [(3S)-3-Ethynylpyrrolidin-3-yl]-4-[3-[2-(cyclopropoxy)-3-pyridyl]pyrazolo[1,5-a]pyrimidin-5-yl]piperazine-1-carboxylate]"
5,B (B: 0.016-0.075),"C#CC1(OC(=O)N2CCN(c3ccn4ncc(-c5cccnc5OC5CC5)c4n3)CC2)CCNC1 (centres unmarked) [Compound I-16-7, 3-ethynylpyrrolidin-3-yl-4-(3-(2-cyclopropoxypyridin-3-yl)pyrazolo[1,5-a]pyrimidin-5-yl)piperazine-1-carboxylate]"
6,B (B: 0.016-0.075),"CC(C)Oc1ncccc1-c1cnn2ccc(N3CCN(C(=O)OC4(C)CCNC4)CC3)nc12 (centres unmarked) [Compound I-21-5, (3-Methylpyrrolidin-3-yl)-4-[3-(2-isopropoxy-3-pyridyl)pyrazolo[1,5-a]pyrimidin-5-yl]piperazine-1-carboxylate]"
7,B (B: 0.016-0.075),"CC(C)Oc1ncccc1-c1cnn2ccc(N3CCN(C(=O)O[C@]4(C)CCNC4)CC3)nc12 [Compound I-22, [(3R)-3-methylpyrrolidin-3-yl]4-[3-(2-isopropoxy-3-pyridyl)pyrazolo[1,5-a]pyrimidin-5-yl]piperazine-1-carboxylate]"
8,A (A: ≤0.015),"O=C1C[C@H](OC(=O)N2CCN(c3ccn4ncc(-c5cccnc5OC5CC5)c4n3)CC2)CN1CCOCc1ccccc1 [Compound I-37, [(3S)-1-(2-benzyloxyethyl)-5-oxo-pyrrolidin-3-yl]-4-[3-[2-(cyclopropoxy)-3-pyridyl]pyrazolo[1,5-a]pyrimidin-5-yl]piperazine-1-carboxylate]"
9,A (A: ≤0.015),"C[C@@]1(OC(=O)N2CCN(c3ccn4ncc(-c5cccnc5OC5CC5)c4n3)CC2)CCN(CC(N)=O)C1 [Compound I-51, (R)-1-(2-amino-2-oxoethyl)-3-(methylpyrrolidin-3-yl)-4-(3-(2-cyclopropoxypyridin-3-yl)pyrazolo[1,5-a]pyrimidin-5-yl)piperazine-1-carboxylate]"
10,B (B: 0.016-0.075),"CN(CCNc1ccn2ncc(-c3cccnc3OC3CC3)c2n1)C(=O)O[C@]1(C)CCNC1 [Compound I-61, (R)-3-methylpyrrolidin-3-yl (2-((3-(2-cyclopropoxypyridin-3-yl)pyrazolo[1,5-a]pyrimidin-5-yl)amino)ethyl)(methyl)carbamate]"
11,A (A: ≤0.015),COc1cnc(OC2CC2)c(-c2cnn3ccc(N4CCN(C(=O)O[C@H]5CC(=O)N(C)C5)CC4)nc23)c1 [Compound I-87]
